15 compounds from patent EP3212201B1, “NUCLEOSIDE KINASE INHIBITORS” (BCI Pharma, priority 2014, dated 2016) can be followed below.

Experiment in all cases: FRET-based coupled-enzyme protein kinase inhibition assay
What all share (assay type): biochemical
Common to all, as to details: compound at 10 µM, 1% DMSO

One assay concerns the target MET (cMet) (Homo sapiens, UniProt P08581). Here is the method:
(§1) A biochemical assay was then performed in order to measure the protein kinase inhibition. It employed a fluorescence-based coupled-enzyme format and was based on the differential sensitivity of phosphorylated and non-phosphorylated peptides to proteolytic cleavage.
(§2) Peptide substrates were labeled with two fluorophores. The two fluorohores used were coumarin (donor) and fluorecein (acceptor), and each of the peptides was bearing one at one end, and one at the other end, which made up fluorescence resonance energy transfer (FRET) pair peptides.
(§3) In a primary reaction, the FRET-peptides were submitted to a phosphorylation reaction, in which one of adenosine triphosphate (ATP)'s phosphate groups was transferred to the peptide in the presence of kinase. When kinase inhibition takes place, the peptide will not be phosphorylated. In a secondary reaction, both the phosphorylated FRET-peptides and the non-phosphorylated FRET-peptides were reacted with a development reagent. It has been observed that non-phosphorylated FRET-peptides were cleaved, whereas the phosphorylted FRET-peptide remained intact.
(§4) Cleavage disrupts FRET between the donor (i.e., coumarin) and acceptor (i.e., fluorescein) fluorophores on the FRET-peptide, whereas uncleaved, phosphorylated FRET-peptides maintain FRET. A ratiometric method, which calculates the Emission Ratio of donor emission to acceptor emission after excitation of the donor fluorophore at 400 nm, is used to quantitate reaction progress, as shown in the equation below. [formula]
(§5) A significant benefit of this ratiometric method for quantitating reaction progress is the elimination of well-to-well variations in FRET-peptide concentration and signal intensities. As a result, the assay yields very high Z'factor values (>0.7) at a low percent phosphorylation. Both cleaved and uncleaved FRET-peptides contribute to the fluorescence signals and therefore to the Emission Ratio. The extent of phosphorylation of the FRET-peptide can be calculated from the Emission Ratio. The Emission Ratio will remain low if the FRET-peptide is phosphorylated (i.e., no kinase inhibition) and will be high if the FRET-peptide is non-phosphorylated (i.e., kinase inhibition).
(§6) The Test Compounds were screened in 1% DMSO. For 10 point titrations, 3-fold serial dilutions were prepared from the starting concentration.
(§7) All Peptide/Kinase Mixtures were diluted to a 2X working concentration in the appropriate Kinase Buffer (50 mM HEPES pH 7.5, 0.01% BRIJ-35, 10 mM MgCl2, 1 mM […]).
(§8) All ATP Solutions were diluted to a 4X working concentration in Kinase Buffer. ATP Km apparent was previously determined using another assay.
(§9) 2.5 µL - 4X Test Compound or 100 nL 100X plus 2.4 µL kinase buffer were mixed together with 2. 5 µL - 2X Peptide/Kinase Mixture and 3. 2.5 µL - 4X ATP Solution.
(§10) The solution was plate-shaked for 30 seconds, then incubated 60 minutes at room temperature for kinase reaction. 5 µL of Development Reagent Solution were then added, followed by a 30-second plate shake and a 60-minute Development Reaction incubation at room temperature. The results were read on a fluorescence plate reader and the data was analyzed.
(§11) The compounds that show the highest Emission Ratio are the ones that also show the highest protein kinase inhibition properties.

Another assay addresses KIT (Homo sapiens, UniProt P10721). Here is the method:
as §1, §2, §3, §4, §5, §6, §7, §8, §9, §10, §11

Another assay concerns the target T1, IKBKB (IKK beta) (Homo sapiens, UniProt O14920).
T1 sequence (O14920 1-756): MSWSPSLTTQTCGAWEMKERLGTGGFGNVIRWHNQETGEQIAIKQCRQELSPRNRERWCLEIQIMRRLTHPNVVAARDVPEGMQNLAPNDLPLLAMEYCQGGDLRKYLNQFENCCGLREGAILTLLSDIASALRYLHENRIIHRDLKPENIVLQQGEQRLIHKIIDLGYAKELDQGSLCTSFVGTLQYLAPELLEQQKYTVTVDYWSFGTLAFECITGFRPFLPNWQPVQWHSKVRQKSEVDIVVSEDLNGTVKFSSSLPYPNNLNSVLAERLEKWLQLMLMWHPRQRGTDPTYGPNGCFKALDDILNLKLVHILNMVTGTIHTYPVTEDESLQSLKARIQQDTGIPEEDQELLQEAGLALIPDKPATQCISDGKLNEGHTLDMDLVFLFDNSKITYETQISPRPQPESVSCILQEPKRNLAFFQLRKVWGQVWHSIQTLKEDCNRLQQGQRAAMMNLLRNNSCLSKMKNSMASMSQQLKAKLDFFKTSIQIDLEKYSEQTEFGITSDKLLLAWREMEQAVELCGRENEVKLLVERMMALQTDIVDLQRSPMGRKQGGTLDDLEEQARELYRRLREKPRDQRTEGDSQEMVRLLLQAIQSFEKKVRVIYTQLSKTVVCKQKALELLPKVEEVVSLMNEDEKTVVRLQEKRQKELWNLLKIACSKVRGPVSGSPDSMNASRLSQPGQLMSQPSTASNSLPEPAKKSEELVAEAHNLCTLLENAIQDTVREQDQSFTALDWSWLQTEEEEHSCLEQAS
Here is the method: as §1, §2, §3, §4, §5, §6, §7, §8, §9, §10, §11

A further assay addresses EGFR (ErbB1) (Homo sapiens, UniProt P00533). As for the experimental part: as §1, §2, §3, §4, §5, §6, §7, §8, §9, §10, §11
The target in the next assay is FRAP1 (mTOR) (Homo sapiens, UniProt P42345). As for the experimental part: as §1, §2, §3, §4, §5, §6, §7, §8, §9, §10, §11
The target of a further assay is T2, IRAK4 (Homo sapiens, UniProt Q9NWZ3).
T2 sequence (Q9NWZ3 1-460): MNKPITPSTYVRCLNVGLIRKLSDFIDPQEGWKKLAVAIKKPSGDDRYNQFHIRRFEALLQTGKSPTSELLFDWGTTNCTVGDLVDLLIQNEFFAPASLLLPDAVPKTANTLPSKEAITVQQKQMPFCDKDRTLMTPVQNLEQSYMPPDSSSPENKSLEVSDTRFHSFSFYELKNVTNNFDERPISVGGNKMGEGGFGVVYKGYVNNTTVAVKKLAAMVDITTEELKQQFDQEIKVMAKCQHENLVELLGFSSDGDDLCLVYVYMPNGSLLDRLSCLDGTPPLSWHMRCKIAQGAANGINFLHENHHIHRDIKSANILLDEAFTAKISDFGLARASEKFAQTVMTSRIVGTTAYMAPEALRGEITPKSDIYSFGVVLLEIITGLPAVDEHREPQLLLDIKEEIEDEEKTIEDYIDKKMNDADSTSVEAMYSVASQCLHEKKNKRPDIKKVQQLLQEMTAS
As for the experimental part:
as §1, §2, §3, §4, §5, §6, §7, §8, §9, §10, §11

MET (cMet), sequence (P08581 25-1390): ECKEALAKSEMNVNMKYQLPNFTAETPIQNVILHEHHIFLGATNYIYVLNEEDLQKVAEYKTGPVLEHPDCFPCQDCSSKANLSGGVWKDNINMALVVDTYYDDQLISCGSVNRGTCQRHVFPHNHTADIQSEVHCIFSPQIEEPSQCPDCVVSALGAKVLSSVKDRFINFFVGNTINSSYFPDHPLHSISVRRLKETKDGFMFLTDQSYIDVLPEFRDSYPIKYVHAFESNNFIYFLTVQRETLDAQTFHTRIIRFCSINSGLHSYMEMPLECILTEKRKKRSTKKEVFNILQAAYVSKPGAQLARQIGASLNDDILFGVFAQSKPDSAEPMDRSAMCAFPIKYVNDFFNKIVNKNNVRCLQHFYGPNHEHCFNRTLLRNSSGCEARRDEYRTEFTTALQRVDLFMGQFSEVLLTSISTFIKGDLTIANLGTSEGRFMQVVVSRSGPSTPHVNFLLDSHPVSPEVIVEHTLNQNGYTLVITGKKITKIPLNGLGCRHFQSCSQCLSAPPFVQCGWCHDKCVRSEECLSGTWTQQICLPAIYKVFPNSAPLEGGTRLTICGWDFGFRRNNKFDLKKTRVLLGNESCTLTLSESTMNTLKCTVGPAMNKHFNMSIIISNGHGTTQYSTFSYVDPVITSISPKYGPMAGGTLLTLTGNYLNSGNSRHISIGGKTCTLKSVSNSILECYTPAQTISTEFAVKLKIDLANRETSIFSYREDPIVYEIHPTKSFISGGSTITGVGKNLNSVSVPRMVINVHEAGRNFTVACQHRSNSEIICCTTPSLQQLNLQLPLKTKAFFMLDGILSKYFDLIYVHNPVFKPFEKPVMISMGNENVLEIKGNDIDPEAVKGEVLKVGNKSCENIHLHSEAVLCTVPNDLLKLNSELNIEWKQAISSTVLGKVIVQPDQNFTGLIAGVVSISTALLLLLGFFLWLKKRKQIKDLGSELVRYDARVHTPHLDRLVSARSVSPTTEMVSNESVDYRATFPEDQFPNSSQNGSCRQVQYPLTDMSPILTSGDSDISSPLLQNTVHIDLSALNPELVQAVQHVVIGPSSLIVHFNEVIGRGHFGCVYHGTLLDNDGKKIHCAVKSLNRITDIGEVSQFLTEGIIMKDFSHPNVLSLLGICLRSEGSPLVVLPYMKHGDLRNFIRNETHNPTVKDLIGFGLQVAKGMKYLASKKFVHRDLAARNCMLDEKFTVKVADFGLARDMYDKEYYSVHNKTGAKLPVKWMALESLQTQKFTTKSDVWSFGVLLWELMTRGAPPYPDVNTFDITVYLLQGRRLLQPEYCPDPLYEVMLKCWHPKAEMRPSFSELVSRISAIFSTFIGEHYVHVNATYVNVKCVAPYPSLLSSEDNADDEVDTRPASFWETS
KIT, sequence (P10721 26-976, species assumed): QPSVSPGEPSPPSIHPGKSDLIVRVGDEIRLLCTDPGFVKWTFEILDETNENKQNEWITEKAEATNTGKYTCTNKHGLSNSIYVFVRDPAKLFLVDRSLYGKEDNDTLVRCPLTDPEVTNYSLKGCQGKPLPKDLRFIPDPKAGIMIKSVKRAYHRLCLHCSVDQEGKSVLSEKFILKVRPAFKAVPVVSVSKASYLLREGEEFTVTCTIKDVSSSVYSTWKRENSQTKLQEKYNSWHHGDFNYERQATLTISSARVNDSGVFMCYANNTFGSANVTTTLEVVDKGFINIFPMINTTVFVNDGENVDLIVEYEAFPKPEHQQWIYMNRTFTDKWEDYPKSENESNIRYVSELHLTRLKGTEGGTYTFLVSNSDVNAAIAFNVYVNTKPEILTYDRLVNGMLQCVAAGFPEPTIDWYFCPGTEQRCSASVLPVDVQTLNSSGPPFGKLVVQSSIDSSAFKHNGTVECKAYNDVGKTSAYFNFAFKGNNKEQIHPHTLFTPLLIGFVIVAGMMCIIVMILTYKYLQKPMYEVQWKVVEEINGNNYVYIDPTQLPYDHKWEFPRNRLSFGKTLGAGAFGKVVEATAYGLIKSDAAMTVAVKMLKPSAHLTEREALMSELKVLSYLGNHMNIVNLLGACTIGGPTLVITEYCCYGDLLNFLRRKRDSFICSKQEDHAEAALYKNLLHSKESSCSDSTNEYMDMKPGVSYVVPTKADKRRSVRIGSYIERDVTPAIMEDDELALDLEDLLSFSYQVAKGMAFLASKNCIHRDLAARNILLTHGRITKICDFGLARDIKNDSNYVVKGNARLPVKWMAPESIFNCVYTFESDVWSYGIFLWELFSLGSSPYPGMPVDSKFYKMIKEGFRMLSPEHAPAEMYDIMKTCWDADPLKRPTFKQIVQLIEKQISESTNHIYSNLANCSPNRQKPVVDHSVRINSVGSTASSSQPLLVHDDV
EGFR (ErbB1), sequence (P00533 25-1210, species assumed): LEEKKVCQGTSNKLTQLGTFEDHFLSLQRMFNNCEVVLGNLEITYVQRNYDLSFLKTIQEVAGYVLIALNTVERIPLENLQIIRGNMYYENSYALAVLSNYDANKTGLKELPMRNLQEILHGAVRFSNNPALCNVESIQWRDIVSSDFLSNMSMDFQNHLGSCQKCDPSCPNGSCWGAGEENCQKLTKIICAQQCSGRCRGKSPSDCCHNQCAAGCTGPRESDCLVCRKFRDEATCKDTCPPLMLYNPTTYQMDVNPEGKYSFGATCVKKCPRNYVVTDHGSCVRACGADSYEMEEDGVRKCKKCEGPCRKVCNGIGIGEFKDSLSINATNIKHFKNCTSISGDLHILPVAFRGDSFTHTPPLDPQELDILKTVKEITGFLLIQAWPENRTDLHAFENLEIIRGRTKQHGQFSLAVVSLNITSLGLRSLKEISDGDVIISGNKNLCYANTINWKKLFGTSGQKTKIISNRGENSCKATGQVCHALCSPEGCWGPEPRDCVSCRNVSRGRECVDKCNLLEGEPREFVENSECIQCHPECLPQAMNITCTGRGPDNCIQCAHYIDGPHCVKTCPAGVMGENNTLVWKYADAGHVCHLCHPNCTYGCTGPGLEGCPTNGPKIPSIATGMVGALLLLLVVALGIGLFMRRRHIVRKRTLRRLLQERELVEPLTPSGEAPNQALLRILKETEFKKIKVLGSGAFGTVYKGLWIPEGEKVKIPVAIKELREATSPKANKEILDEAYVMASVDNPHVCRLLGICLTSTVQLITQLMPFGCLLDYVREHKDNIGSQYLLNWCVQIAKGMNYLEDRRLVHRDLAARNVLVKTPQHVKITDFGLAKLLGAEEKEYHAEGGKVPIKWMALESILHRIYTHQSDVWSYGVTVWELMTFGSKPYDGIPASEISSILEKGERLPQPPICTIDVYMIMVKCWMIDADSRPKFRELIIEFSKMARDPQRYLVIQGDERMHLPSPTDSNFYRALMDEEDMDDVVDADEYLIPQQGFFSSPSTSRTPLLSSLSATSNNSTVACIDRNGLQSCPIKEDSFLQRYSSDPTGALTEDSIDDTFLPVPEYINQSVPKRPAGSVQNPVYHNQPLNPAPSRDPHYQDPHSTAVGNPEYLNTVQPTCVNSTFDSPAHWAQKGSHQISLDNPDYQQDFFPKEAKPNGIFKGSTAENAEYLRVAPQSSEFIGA

For orientation: inhibition means the relative decrease from the control value, in per cent. Regarding `Nc1ncnc2c1ncn2[C@@H]1O[C@H](COC(=O)NCCCc2nc3ccccc3[nH]2)[C@@H](O)[C@H]1O` [Compound C1], the inhibition at 10 µM at MET (cMet) was 0%; at KIT, 10%; at IKBKB (IKK beta) it was -10%; against EGFR (ErbB1), 34%; at FRAP1 (mTOR) it was -2%; on IRAK4, -2%.

As to `C[C@@H](NC(=O)OC[C@H]1O[C@@H](n2cnc3c(N)ncnc32)[C@H](O)[C@@H]1O)c1ccc(Cl)cc1` [Compound C4], the inhibition at 10 µM is 3% on MET (cMet); 20% on KIT; -6% at IKBKB (IKK beta); 22% against EGFR (ErbB1); -5% against FRAP1 (mTOR); 3% against IRAK4.

Consider `Nc1ncnc2c1ncn2[C@@H]1O[C@H](COC(=O)NC[C@H](O)CO)[C@@H](O)[C@H]1O` [Compound C8], for which the inhibition at 10 µM against MET (cMet) was -16%; at KIT, 28%; at IKBKB (IKK beta), -6%; on EGFR (ErbB1), 14%; at FRAP1 (mTOR), 5%; at IRAK4 it was -8%.

`Nc1ncnc2c1ncn2[C@@H]1O[C@H](COC(=O)N2CCC[C@H]2CO)[C@@H](O)[C@H]1O` [Compound C9]: the inhibition at 10 µM on MET (cMet) was -11%; against KIT, -3%; on IKBKB (IKK beta) it was -8%; at EGFR (ErbB1), -2%; at FRAP1 (mTOR), -3%; at IRAK4, -2%.

As for `Nc1ncnc2c1ncn2[C@@H]1O[C@H](COC(=O)N[C@@H]2CCN(Cc3ccccc3)C2)[C@@H](O)[C@H]1O` [Compound C10], the inhibition at 10 µM is -1% against MET (cMet); 7% against KIT; -11% on IKBKB (IKK beta); 27% at EGFR (ErbB1); -3% at FRAP1 (mTOR); 6% against IRAK4.

As for `Nc1ncnc2c1ncn2[C@@H]1O[C@H](COC(=O)N2CCN(Cc3ccccc3)CC2CO)[C@@H](O)[C@H]1O` (stereo partly drawn) [Compound C13], the inhibition at 10 µM against MET (cMet) is 0%; against KIT, 18%; against IKBKB (IKK beta), -7%; on EGFR (ErbB1) it was 8%; on FRAP1 (mTOR) it was -1%; at IRAK4, 13%.

Take `CC(C)N1CCC(NC(=O)OC[C@H]2O[C@@H](n3cnc4c(N)ncnc43)[C@H](O)[C@@H]2O)CC1` [Compound C19]: the inhibition at 10 µM on MET (cMet) is 2%; against KIT, -1%; against IKBKB (IKK beta), -6%; against EGFR (ErbB1), 17%; against FRAP1 (mTOR), 5%; against IRAK4, -3%.

As to `Nc1ncnc2c1ncn2[C@@H]1O[C@H](COC(=O)NCCN2CCCC2=O)[C@@H](O)[C@H]1O` [Compound C22], the inhibition at 10 µM was 1% on MET (cMet); 3% against KIT; -13% at IKBKB (IKK beta); 11% at EGFR (ErbB1); 0% against FRAP1 (mTOR); 1% at IRAK4.

Consider `Nc1ncnc2c1ncn2[C@@H]1O[C@H](COC(=O)N2CCN(CCc3ccccc3)CC2)[C@@H](O)[C@H]1O` [Compound C26], for which the inhibition at 10 µM on MET (cMet) is -5%; on KIT, 6%; against IKBKB (IKK beta), -8%; at EGFR (ErbB1), 13%; against FRAP1 (mTOR), -6%; on IRAK4, 2%.

Turning to `CN1CCN(CCNC(=O)OC[C@H]2O[C@@H](n3cnc4c(N)ncnc43)[C@H](O)[C@@H]2O)CC1` [Compound C46], the inhibition at 10 µM against MET (cMet) is 8%; at KIT it was 6%; against IKBKB (IKK beta), -3%; at EGFR (ErbB1) it was 14%; at FRAP1 (mTOR) it was 5%; against IRAK4 it was 7%.

Consider `Nc1ncnc2c1ncn2[C@@H]1O[C@H](COC(=O)N2CCC(Cc3ccc(F)cc3)C2)[C@@H](O)[C@H]1O` (stereo partly drawn) [Compound C66], for which the inhibition at 10 µM was -14% against MET (cMet); -7% against KIT; -11% against IKBKB (IKK beta); 31% against EGFR (ErbB1); -4% at FRAP1 (mTOR); -2% against IRAK4.

As for `N#CCCN1CCN(C(=O)OC[C@H]2O[C@@H](n3cnc4c(N)ncnc43)[C@H](O)[C@@H]2O)CC1` [Compound C70], the inhibition at 10 µM was -2% at MET (cMet); 12% at KIT; -12% at IKBKB (IKK beta); -1% on EGFR (ErbB1); -6% against FRAP1 (mTOR); 0% on IRAK4.

As for `CN(C)CCNC(=O)OC[C@H]1O[C@@H](n2cnc3c(N)ncnc32)[C@H](O)[C@@H]1O` [Compound C85], the inhibition at 10 µM at MET (cMet) is -12%; on KIT it was 10%; on IKBKB (IKK beta), -10%; on EGFR (ErbB1) it was 20%; against FRAP1 (mTOR), 2%; against IRAK4, -1%.

`Nc1ncnc2c1ncn2[C@@H]1O[C@H](COC(=O)N2CCN(C(=O)N3CCOCC3)CC2)[C@@H](O)[C@H]1O` [Compound C89]: the inhibition at 10 µM on MET (cMet) is -4%; at KIT, -16%; on IKBKB (IKK beta) it was -10%; against EGFR (ErbB1), 28%; on FRAP1 (mTOR) it was -4%; at IRAK4, -5%.

Regarding `CS(=O)(=O)N1CC2(CCN(C(=O)OC[C@H]3O[C@@H](n4cnc5c(N)ncnc54)[C@H](O)[C@@H]3O)CC2)c2ccccc21` [Compound C98], the inhibition at 10 µM at MET (cMet) is -12%; against KIT it was 20%; on IKBKB (IKK beta) it was -8%; against EGFR (ErbB1), 5%; on FRAP1 (mTOR), 2%; against IRAK4, -17%.
